According to patent publication EP0506748B1, “AMINO ACIDS, PEPTIDES OR DERIVATIVES THEREOF COUPLED TO FATS” (COMMONWEALTH SCIENTIFIC AND INDUSTRIAL RESEARCH ORGANISATION, priority 1989, dated 1991):

What was measured:
[1] = test system: RD10 cells; experiment: 3H-thymidine incorporation (mitogenic effect) in RD10 cells; type: cell-based; conditions: RD10 B-cell lymphoma
Description: (§1) ^3H-thymidine incorporation experiments were carried out in Linbro-Titertek microtitre plates (Flow Laboratories, Inc., U.S.A.) following the method of L. Bradley in "Selected Methods of Cellular Immunology (1980) Eds. B.B. Mishell and S.M. Shiigi; Publisher. W.H. Freeman and Co., U.S.A. pp156. The tests were carried out externally by Dr. D. Rathjen of Peptide Technology Ltd. Dee Why, N.S.W.
(§2) Cell lines tested were:- • 1. RD10; a B-cell lymphoma (obtained from the Centre for Immunology, Sydney University, Sydney, NSW. • 2. U937; a human monocyte-like3 histiocytic lymphoma (source: American Tissue Culture Collection).
(§3) RD10 cells (at a cell density 5x10^s/ml, 100 ul/well) were cultured for 20 hours at 37°C with 5% C02 in RPMI 1640 medium, supplemented with 10% Fetal Calf. Serum. Samples to be tested were mixed and sonicated with this medium at a concentration of 5000, 500, 50 and 5 ug/ml and 100 ul aliquots added to the cells. The cells were pulsed with 0.5 uCi/well of ^3H-thymidine and the plates incubated for four more hours before harvesting (Titertek Skatron harvester, Lier, Norway). Incorporated radioactivity was measured by liquid scintillation counting. All assays were performed in triplicate.

[2] = test system: U937 cells; experiment: 3H-thymidine incorporation (mitogenic effect) in U937 cells; type: cell-based, human; conditions: for Thymidine incorporation of the U937 cells: U937 human monocyte-like histiocytic lymphoma, result in words, relative to control or to Z-Ala-TRIS-Tripalmitate
Description: as §1, §2, §3

[3] = target: T1, trypsin (Bos taurus, UniProt P00760); experiment: Protease treatment: digestion with trypsin, followed by HPLC; type: biochemical; conditions: TPCK trypsin, enzyme/substrate ratio 1:50, 0.2 M ammonium hydrogen carbonate, 37°C; product Z-Leu-Arg-OH
T1 sequence (P00760 24-246): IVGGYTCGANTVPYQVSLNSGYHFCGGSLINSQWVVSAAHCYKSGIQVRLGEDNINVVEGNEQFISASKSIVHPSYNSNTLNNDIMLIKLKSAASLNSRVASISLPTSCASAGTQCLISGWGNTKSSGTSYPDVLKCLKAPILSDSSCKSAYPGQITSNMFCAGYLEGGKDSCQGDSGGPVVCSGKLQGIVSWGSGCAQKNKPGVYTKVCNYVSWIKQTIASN
Description: Z-Gly-TRIS and Z-Ala-TRIS were incubated with papain, and Z-Leu-Arg-TRIS with trypsin, to test that the action of proteolytic enzymes could regenerate the starting compounds Z-Gly-OH, Z-Ala-OH and Z-Leu-Arg-OH respectively.
• a) Papain. Z-Ala-TRIS in 50 mmolar phosphate buffer pH 6.5 (650 ul) , 20 mM ethylene-diamine-tetraacetic acid (100 ul) and water to 1 ml. Activated papain (5mg/ml) was added to a final enzyme/substrate ratio of 1:50. The reaction was followed by HPLC on C18 reverse phase columns and the hydrolysis product identified by co-chromatography with standards. Blanks were incubated as above using water instead of enzyme solution. • b) Trypsin. Z-Leu-Arg-TRIS was incubated at a concentration between 2 and 10 mg/ml in 0.2 M ammonium hydrogen carbonate. Freshly prepared TPCK trypsin (1 mg/ml in water) was added to the solution giving a final enzyme/substrate ratio of 1:50. Samples were incubated at 37°C and aliquots examined by reverse phase HPLC. Additional amounts of enzyme were added as required.

CCCCCCCCCCCCCCCC(=O)OCC(COC(=O)CCCCCCCCCCCCCCC)(COC(=O)CCCCCCCCCCCCCCC)NC(=O)C(C)N (stereo not drawn) [Ala-TRIS-Tripalmitate, Ala-TRIS-TRIPALMITATE]
^3H-thymidine uptake by RD10 cells, response compared with Z-Ala-TRIS-Tripalmitate ([1]; result in words): slightly diminished response
Thymidine incorporation of the U937 cells [2]: slightly diminished responses

CCCCCCCCCCCCCCCC(=O)OCC(COC(=O)CCCCCCCCCCCCCCC)(COC(=O)CCCCCCCCCCCCCCC)NC(=O)C(C)NC(=O)OCc1ccccc1 (stereo not drawn) [Z-Ala-TRIS-Tripalmitate, Z-Ala-TRIS-TRIPALMITATE]
^3H-thymidine uptake by RD10 cells, increase in cell proliferation compared to control ([1]; samples at 5000, 500, 50 and 5 ug/ml, 20 hours culture, 4 hours pulse, triplicate): 3.4 fold
Thymidine incorporation of the U937 cells [2]: close to control
cytotoxic effects in U937 cells ([2]; at higher concentrations, from thymidine incorporation): slight cytotoxic effects

CC(C)C[C@H](NC(=O)OCc1ccccc1)C(=O)N[C@@H](CCCNC(=N)N)C(=O)NC(CO)(CO)CO [Z-Leu-Arg-TRIS]
hydrolysis with trypsin [3]: slowly
